Patent publication US20250313546A1, “NUCLEIC ACID BINDERS” (UNIVERSITY OF STRATHCLYDE, priority 2022, published 2025)
In brackets after ≈: the same amount, converted by molar mass.

Columns and labels:
Assay in all cases: Antibacterial MIC, broth microdilution (CLSI)
Type in all cases: cell-based
[1] = tested on: Staphylococcus aureus (ATCC 43300); conditions: Staphylococcus aureus, ATCC43300; read-out: MIC80 S. aureus
[2] = tested on: Escherichia coli (ATCC 25922); conditions: Escherichia coli, ATCC25922; read-out: MIC80 E. coli
[3] = tested on: Enterococcus faecalis (ATCC 51299); conditions: Enterococcus faecalis, ATCC51299; read-out: MIC80 E. faecalis

Compound	MIC80 [1] [µM]	MIC80 [2] [µM]	MIC80 [3] [µM]
Cn1cc(NC(=O)c2cc(NC(=O)c3ccc(/C=C/c4cnc5ccccc5c4)cc3)cn2C)cc1C(=O)NCCCCC(=N)N [II1, (E)-N-(5-amino-5-iminopentyl)-1-methyl-4-(1-methyl-4-(4-(2-(quinolin-3-yl)vinyl)benzamido)-1H-pyrrole-2-carboxamido)-1H-pyrrole-2-carboxamide]	25 to 100 (≈ 15.4 to 61.7 µg/mL)	> 100	> 100
CN(C)c1ccc(/C=C/c2ccc(C(=O)Nc3cc(C(=O)Nc4cc(C(=O)NCCCCC(=N)N)n(C)c4)n(C)c3)cn2)cc1 [II2, (E)-N-(5-((5-((5-amino-5-iminopentyl)carbamoyl)-1-methyl-1H-pyrrol-3-yl)carbamoyl)-1-methyl-1H-pyrrol-3-yl)-6-(4-(dimethylamino)styryl)nicotinamide]	5 to 25 (≈ 3.05 to 15.2 µg/mL)	> 100	5 to 25 (≈ 3.05 to 15.2 µg/mL)
CNC(=N)CCNC(=O)c1cc(NC(=O)c2cc(NC(=O)c3ccc(/C=C/c4ccc(C(F)(F)F)cc4)cc3)cn2C)cn1C [Ia2, (E)-N-(3-imino-3-(methylamino)propyl)-1-methyl-4-(1-methyl-4-(4-(4-(trifluoromethyl)styryl)benzamido)-1H-pyrrole-2-carboxamido)-1H-pyrrole-2-carboxamide]	< 5	> 100	
CNC(=N)CCNC(=O)c1cc(NC(=O)c2cc(NC(=O)c3ccc(/C=C/c4ccc5ccccc5c4)cc3)cn2C)cn1C [Ia4, (E)-N-(3-imino-3-(methylamino)propyl)-1-methyl-4-(1-methyl-4-(4-(2-(naphthalen-2-yl)vinyl)benzamido)-1H-pyrrole-2-carboxamido)-1H-pyrrole-2-carboxamide]	5 to 25 (≈ 3.01 to 15 µg/mL)	> 100	
C/N=C(/CCNC(=O)c1cc(NC(=O)c2cc(NC(=O)c3ccc(/C=C/c4cccc(F)c4)cc3)cn2C)cn1C)NC [Ia64, 4-(4-((E)-3-fluorostyryl)benzamido)-1-methyl-N-(1-methyl-5-(((Z)-3-(methylamino)-3-(methylimino)propyl)carbamoyl)-1H-pyrrol-3-yl)-1H-pyrrole-2-carboxamide]	5 to 25 (≈ 2.92 to 14.6 µg/mL)		
C/N=C(/CCNC(=O)c1cc(NC(=O)c2cc(NC(=O)c3ccc(/C=C/c4ccc(F)cc4)nc3)cn2C)cn1C)NC [Ia65, 6-((E)-4-fluorostyryl)-N-(1-methyl-5-((1-methyl-5-(((Z)-3-(methylamino)-3-(methylimino)propyl)carbamoyl)-1H-pyrrol-3-yl)carbamoyl)-1H-pyrrol-3-yl)nicotinamide]	< 5		
CC[N+](C)(C)CCCNC(=O)c1cc(NC(=O)c2cc(NC(=O)c3ccc(/C=C/c4cccc(C(F)(F)F)c4)nc3)cn2C)cn1C [Ic20, (E)-N-ethyl-N,N-dimethyl-3-(1-methyl-4-(1-methyl-4-(6-(3-(trifluoromethyl)styryl)nicotinamido)-1H-pyrrole-2-carboxamido)-1H-pyrrole-2-carboxamido)propan-1-aminium]	25 to 100		
CC[N+](C)(C)CCCNC(=O)c1cc(NC(=O)c2cc(NC(=O)c3ccc(/C=C/c4ccc(F)c(OC)c4)nc3)cn2C)cn1C [Ic21, (E)-N-ethyl-3-(4-(4-(6-(4-fluoro-3-methoxystyryl)nicotinamido)-1-methyl-1H-pyrrole-2-carboxamido)-1-methyl-1H-pyrrole-2-carboxamido)-N,N-dimethylpropan-1-aminium]	25 to 100		
CC[N+](C)(C)CCCNC(=O)c1cc(NC(=O)c2cc(NC(=O)c3ccc(/C=C/c4ccc5nonc5c4)cc3)cn2C)cn1C [Ic22, (E)-3-(4-(4-(4-(2-(benzo[c][1,2,5]oxadiazol-5-yl)vinyl)benzamido)-1-methyl-1H-pyrrole-2-carboxamido)-1-methyl-1H-pyrrole-2-carboxamido)-N-ethyl-N,N-dimethylpropan-1-aminium]	25 to 100		
CC[N+](C)(C)CCCNC(=O)c1cc(NC(=O)c2cc(NC(=O)c3ccc(/C=C/c4cnc5ccccc5c4)cc3)cn2C)cn1C [Ic23, (E)-N-ethyl-N,N-dimethyl-3-(1-methyl-4-(1-methyl-4-(4-(2-(quinolin-3-yl)vinyl)benzamido)-1H-pyrrole-2-carboxamido)-1H-pyrrole-2-carboxamido)propan-1-aminium]	5 to 25		
